Reference: PubChem BioAssay (NCI)
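Each compound was tested at five concentrations against cells in 96-well plates for 48 hours. TGI: total growth inhibition.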

Columns and labels:
Experiment in all cases: growth of human tumour cells (NCI), 48 h
[1] = test system: NCI-H226 lung
[2] = test system: SNB-75 CNS
[3] = test system: SK-MEL-28 melanoma
[4] = test system: SNB-19 CNS
[5] = test system: A549 NSCLC
[6] = test system: SF-268 CNS
[7] = test system: SW-620 colon
[8] = test system: UACC-257 melanoma
[9] = test system: PC-3 prostate
[10] = test system: MDA-MB-435

| Structure (SMILES) | TGI [1] [µM] | TGI [2] [µM] | TGI [3] [µM] | TGI [4] [µM] | TGI [5] [µM] | TGI [6] [µM] | TGI [7] [µM] | TGI [8] [µM] | TGI [9] [µM] | TGI [10] [µM] |
| --- | --- | --- | --- | --- | --- | --- | --- | --- | --- | --- |
| CC#CC#C/C=C1\C=CC2(OC=CC2O)O1 (configuration not stated) | > 23.3 | > 23.3 | > 23.3 | > 23.3 | > 23.3 | > 23.3 | > 23.3 | > 23.3 |  |  |
| C/C(CCN(C)C)=N\OC(=O)c1ccccc1 | > 100 | > 100 | > 100 | > 100 | > 100 | > 100 | > 100 | > 100 |  |  |
| C[C@@H]1CC[C@@]2(C)[C@H](C)/C(=C\COC(=O)/C=C/c3ccc(O)c(O)c3)CC[C@@]12C | 20.8 | 28 | 24.5 | 27.8 | 35.8 | 23.5 | 23.6 | 24.1 | 17.4 | 11.6 |
| Cc1ccc(S(=O)(=O)Nn2c(S)c(C#N)c(-c3ccc(Cl)cc3)c(C#N)c2=O)cc1 | 66.5 | > 100 | > 100 | > 100 | > 100 |  | 51.7 | > 100 | > 100 | 86.9 |
| O=C1c2ccccc2C(=O)N1NC1=NCCN1 | > 100 |  | > 100 | > 100 | > 100 | > 100 | > 100 | > 100 | > 100 | > 100 |
| C=C1CN2CCc3c([nH]c4ccccc34)C2CC1CC(=O)N(C)C (configuration not stated) | > 309 |  | > 309 | > 309 | > 309 | > 309 | > 309 | > 309 |  |  |
| COc1cc(C(c2ccc3c(c2)OCO3)C2SCCCS2)cc(OC)c1OC (configuration not stated) | 7.11 | 5.83 | > 100 | 5.41 | 53.3 | > 100 | 33 | > 100 | > 100 |  |
| CCCCCCc1cc2cc(C(=O)Nc3cccc(F)c3)c(=N)oc2cc1O |  |  | 9.51 | 23.9 | 13.4 | 10.6 | > 100 | 11.9 | 14 | 6.51 |
| O=C(Nc1ccc(F)cc1)c1cc2c(cc1Cl)Sc1nccn1S2(=O)=O | > 100 | 46.9 | > 100 | > 100 | > 100 | > 100 | > 100 |  | > 100 | > 100 |
| Cc1cccc(-c2nc(-c3cnccn3)n(Cc3ccccc3)n2)c1 |  | 30.2 | > 100 | > 100 | > 100 | > 100 | > 100 | > 100 | > 100 | > 100 |
| COC(=O)[C@H](Cc1ccccc1)NC(=O)N(CCNC(=O)OC(C)(C)C)c1ccccc1 | > 100 | > 100 | > 100 | > 100 | > 100 | > 100 | > 100 |  | > 100 | > 100 |
| c1ccc2c(c1)-c1ccccc1C2NC1=NCCO1 | 56.3 | 49.5 | 55.7 | > 100 | > 100 | > 100 | > 100 |  | 95.3 | 53 |
| O=C1CN(c2ccccc2)C(=O)CN1NCNN1CC(=O)N(c2ccccc2)CC1=O |  | > 100 | > 100 | > 100 | > 100 | > 100 | > 100 | > 100 | > 100 | > 100 |
| COCCCNc1c2ccccc2nc2ccccc12 |  |  | 6.54 | 6.41 | 14 | 16.8 | 12.6 | 7.03 | 5.68 | 12.7 |
| C/C(=N\O)c1cccc(Nc2c3ccccc3nc3occc23)c1 | 54.8 |  | 25.6 | > 100 | 58.5 | 56.9 |  | > 100 | > 100 | 5.73 |
| CCOC(=O)c1cc([N+](=O)[O-])c(Sc2ncnc3nc[nH]c23)c([N+](=O)[O-])c1 | 17.3 |  | 29.2 | 32.4 | 55.6 | 17.8 | 5.25 | 20.6 | 27.9 | 14.7 |
| CC(N)C(C)c1ccccc1 (configuration not stated) | > 100 | > 100 | > 100 | > 100 | > 100 | > 100 | > 100 | > 100 |  |  |
| COc1cccc(/C=N/[N-]C(N)=O)c1[O-].[Co+2].[OH3+].c1ccncc1 | > 100 | > 100 | > 100 |  | > 100 | > 100 | > 100 | > 100 |  |  |
| CCCC(C(=O)OC)C1N=C(NC#N)N(Cc2ccccc2)C1=O (configuration not stated) |  | 81.1 | > 100 | > 100 | > 100 | > 100 | > 100 | > 100 |  |  |
| COc1ccc(-c2cc(=O)c3cc(O)ccc3o2)c(OC)c1OC | > 100 | 76.5 | > 100 | > 100 | > 100 | 93 | > 100 | > 100 |  |  |
| C#CCn1c(=O)ccn(/C(=C/C(=O)OCC)C(=O)OCC)c1=O | 39.7 | 46.5 | 21.6 | 40.7 | 34.9 | 26.9 |  | 29.6 | 28.1 | 28.1 |
| CC(=O)Oc1cc(-c2oc3cc(OC(C)=O)c(C4OC(CO)C(O)C(O)C4O)c(OC(C)=O)c3c(=O)c2O)c(OC(C)=O)cc1O (configuration not stated) | > 100 | > 100 |  |  | > 100 |  | > 100 | > 100 | > 100 | > 100 |
| COC(=O)c1c2c(cc3c1CC1(C3)Cc3cc4c(c(C(=O)OC)c3C1)CCC4)CCC2 | > 100 |  |  |  | > 100 |  |  | > 100 | > 100 | > 100 |
| CC1CCc2c(sc3ncnc(N/N=C/c4ccc(Cl)cc4)c23)C1 (configuration not stated) | 44.4 | > 100 | > 100 | 93 | > 100 | > 100 | > 100 | 70.3 |  |  |
